Tests used:
[1] = biological target: rat VR1 (Rattus norvegicus, UniProt O35433); experiment: Fluorescence assay, rat VR1; assay type: cell-based; settings: in vitro, VR1 ion channel block
[2] = tested on: rat model of neuropathic pain; experiment: Anti-hyperalgesic effects in a model of neuropathic pain in the rat (partial sciatic nerve ligation, paw pressure); assay type: in vivo; settings: single dose 0.3-30 mg/kg p.o. after establishment of hyperalgesia
Method: Test: Anti-Hyperalgesic Effects in a Model of Neuropathic Pain in the Rat
The agents of invention are potent and efficacious anti-hyperalgesic agents following oral administration in the following rat model of neuropathic pain. Peripheral neuropathy is induced by partial ligation of the left sciatic nerve. Mechanical hyperalgesia is assessed from paw withdrawal thresholds measured on the ipsilateral (ligated) and contralateral (non-ligated) hindpaws using standard paw pressure methods. Drug effects are studied 11-15 days post ligation. The mean paw withdrawal threshold±s.e.m. for the left (ligated) paw is compared to that of the right (non-ligated) paw.
The agents of invention are administered, e.g. orally in 20% cremophor/water in a volume of 1 ml. The post-drug percentage hyperalgesia values are obtained by comparison to the pre-drug value for the right (non-ligated) paw; this enables a true measure of the reduction in hyperalgesia to be obtained without the added complication of any drug effects on the right paw. […] The agents of invention produce a reversal of mechanical hyperalgesia at 0.1-100 mg/kg and show a rapid onset of activity with a long duration of action.

[3] = biological target: T1, human vanilloid receptor 1 (hVR1) ion channels (Homo sapiens, UniProt Q8NER1); experiment: Fluorescence assay (calcium-sensitive dye) in CHO cells expressing human vanilloid receptor 1 ion channels, stimulated by capsaicin or low pH; assay type: cell-based; settings: in vitro, VR1 ion channel block
T1 construct: expressed in transfected cells; host or cells: CHO cells
T1 sequence (Q8NER1 whole entry): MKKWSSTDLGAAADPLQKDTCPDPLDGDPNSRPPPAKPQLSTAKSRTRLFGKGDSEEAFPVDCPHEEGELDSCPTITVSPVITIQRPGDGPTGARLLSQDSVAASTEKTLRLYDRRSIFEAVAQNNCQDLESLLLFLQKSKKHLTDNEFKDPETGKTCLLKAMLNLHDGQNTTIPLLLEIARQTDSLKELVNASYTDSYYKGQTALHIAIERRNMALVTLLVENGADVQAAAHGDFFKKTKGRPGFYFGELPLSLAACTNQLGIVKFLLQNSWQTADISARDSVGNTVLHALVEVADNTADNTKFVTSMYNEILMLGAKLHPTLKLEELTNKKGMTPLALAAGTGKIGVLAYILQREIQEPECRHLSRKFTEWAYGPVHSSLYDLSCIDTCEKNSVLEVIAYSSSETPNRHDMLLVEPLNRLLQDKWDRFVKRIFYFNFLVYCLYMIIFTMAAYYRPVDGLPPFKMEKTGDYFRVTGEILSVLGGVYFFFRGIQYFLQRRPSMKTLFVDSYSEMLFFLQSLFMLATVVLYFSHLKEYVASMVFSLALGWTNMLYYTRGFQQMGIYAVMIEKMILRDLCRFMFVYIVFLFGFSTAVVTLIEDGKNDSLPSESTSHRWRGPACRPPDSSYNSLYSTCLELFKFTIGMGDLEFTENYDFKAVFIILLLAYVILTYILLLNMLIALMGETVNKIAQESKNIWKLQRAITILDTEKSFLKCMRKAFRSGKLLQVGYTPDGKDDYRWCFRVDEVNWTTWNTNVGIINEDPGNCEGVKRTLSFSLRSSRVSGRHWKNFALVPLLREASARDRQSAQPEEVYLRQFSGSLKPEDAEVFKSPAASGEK
Method: Fluorescence assay: Cultures of Chinese Hamster Ovary (CHO) cells expressing human vanilloid receptor 1 ion channels are prepared according to standard protocols [McIntyre et al., British Journal of Pharmacology 132: 1084-1094 (2001)]. The activity of test compounds are investigated using a fluorescence assay utilising calcium sensitive dyes to measure changes in [Ca^2+]i. The cells are plated at a density of 25,000 per well on 96 well Costar black, clear bottomed plates cultured at 37° C. in 5% CO2 in MEM medium overnight. On the day of the assay, cells are incubated in either 2 μM fura-2/AM or 2 μM fura-6F (Molecular Probes) made up in assay buffer [Hank's Balanced Salt Solution (HBSS, Invitrogen) containing 10 mM N-2-(hydroxyethylpiperazine-N′-[2-ethanesulfonic acid) (HEPES), pH 7.4] containing 0.01% pluronic F-127 for 30 min at room temperature. […] The fluorescence is measured over 1 min at 4 s intervals using excitation wavelengths of 340 and 380 nm and emission of 520 nm. […] The ratio of fluorescence intensities following excitation at 340 and 380 nm is calculated for each time point. The agonist-evoked response is calculated as the mean of the ratios in the four time-points following stimulation minus the basal ratio.

Sequence of rat VR1 (O35433 whole entry): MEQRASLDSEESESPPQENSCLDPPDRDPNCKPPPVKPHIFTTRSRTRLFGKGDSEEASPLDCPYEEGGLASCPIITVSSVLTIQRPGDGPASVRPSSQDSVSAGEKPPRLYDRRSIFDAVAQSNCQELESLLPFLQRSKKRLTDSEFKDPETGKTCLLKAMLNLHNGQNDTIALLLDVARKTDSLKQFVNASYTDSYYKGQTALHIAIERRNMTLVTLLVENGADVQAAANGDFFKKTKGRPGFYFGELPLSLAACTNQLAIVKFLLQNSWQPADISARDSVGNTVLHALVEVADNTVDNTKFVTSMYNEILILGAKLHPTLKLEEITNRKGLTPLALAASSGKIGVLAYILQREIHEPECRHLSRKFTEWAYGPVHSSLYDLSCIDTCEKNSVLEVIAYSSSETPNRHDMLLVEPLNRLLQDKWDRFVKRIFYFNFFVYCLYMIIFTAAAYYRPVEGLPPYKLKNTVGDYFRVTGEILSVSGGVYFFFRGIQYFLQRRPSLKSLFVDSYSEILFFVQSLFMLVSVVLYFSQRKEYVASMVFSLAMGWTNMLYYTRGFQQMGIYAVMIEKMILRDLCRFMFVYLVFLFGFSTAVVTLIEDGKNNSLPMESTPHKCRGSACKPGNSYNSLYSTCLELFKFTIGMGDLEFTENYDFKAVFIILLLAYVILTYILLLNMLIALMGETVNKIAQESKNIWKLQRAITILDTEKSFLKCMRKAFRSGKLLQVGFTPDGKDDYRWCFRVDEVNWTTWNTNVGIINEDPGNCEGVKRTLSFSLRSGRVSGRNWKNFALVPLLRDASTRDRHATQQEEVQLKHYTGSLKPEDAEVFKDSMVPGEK

IC50 [1]: 19.2 nM
IC50 [3]: 65.1 nM
Structure (SMILES): CC(C)(C)c1nc2[nH]c(=S)[nH]c(=O)c2cc1-c1ccc(Cl)cc1 [Example 2, 7-.tert.-butyl-6-(4-chlorophenyl)-2-thioxo-2,3-dihydro-1.H.-pyrido[2,3-.d.]pyrimidin-4-one]
duration of effect on paw withdrawal thresholds [2]: at least 6 h
effect on paw withdrawal thresholds [2]: dose-dependently reduces paw withdrawal thresholds
